# Measurements as given in US20230133037A1, “EXTENDED RELEASE GASTRORETENTIVE FORMULATION AGAINST HELICOBACTER PYLORI” (SOLSTAR PHARMA, priority 2019, published 2023).
# Like-named read-outs stand apart in the source and are kept apart here.
# Legend:
# E. coli = assay: Antibacterial activity of artesunate with different treatments; assay type: cell-based; conditions: 0.2% w/w in medium, start 1.0×10^6 CFU/mL, 18 h at 36.5° C.
# Procedure: Practically, a bacterial cryovial is thawed and cultured twice during 18 h at 36.5° C. in 9 mL of broth for activation.
# [1] = Water solubility / behaviour in solution; assay type: physicochemical
# [2] = Solubility in simulated gastric fluid; assay type: physicochemical; conditions: 0.5 g in 10 mL SGF pH 1.2, 36.5° C.; for appearance of the solution in SGF after 2 hours: 100 rev/min
# Procedure: All solutions are incubated at 36.5° C. under mild shaking with (100 rev/min) in a G24 Environmental Incubator Shaker (New Brunswick Scientific Co., N.J., USA).
# H. pylori PremSS1 strain = assay: In vivo test of anti-Helicobacter pylori activities; set-up: species or system C57BL/6 mice; conditions: ARTE/SG 40, Nacinn 40, Amoxicillin 30 mg/kg
# Procedure: C57BL/6 mice with SPF («specific pathogen free») status, were housed at the A2 pet store at the University of Bordeaux, in an acclimatization room for 1 week and then transferred to zone of experimentation where the project was conducted.
# The H. pylori PremSS1 strain (supplied by Dr Anne Mueller, University of Zurich) was used. The functionality of the cagPAl island was verified in vitro in a coculture model with the gastric epithelial line AGS: induction of a so-called «hummingbird» phenotype.
# The mice were force-fed at 6 weeks of age with the H. pylori premSS1 strain. The gavages were carried out 3 consecutive days, with a rich suspension of bacteria (2 to 3 dishes of rich culture for 5 mice). […]
# The dishes were incubated at 35° C. in a microaerobic atmosphere and H. pylori was identified by its phenotypic and biochemical characteristics (morphology, urease test, oxidase test). The dishes were read after at least 5 days of incubation. […]
# Quantitative PCR: the presence of H. pylori DNA and mouse housekeeping genes is quantified in the extracts by quantitative PCR in real time, by detecting the fluorescence emitted by the neo PCR products formed using Sybr Green™. […]
# [3] = according to the DrugBank; cited from earlier work
# KG1 cells = assay: Cell growth, resazurin fluorescence assay; assay type: cell-based; conditions: 3 days
# Procedure: (§1) Cell growth was followed via the resazurin (alamar blue) fluorescence assay. At day −1, cells were seeded in 100 μL media at a density of 4×10^3 cells/well in 96-well plates and incubated overnight at 37° C. […] Cultures were performed during 3 days after the addition of the drugs. At day 3, Resazurin (0.1 mg/mL, Sigma-Aldrich) was added at 20 μL/well, and plates were incubated for 4 h at 37° C., then fluorescence (Aex=529.5 nm, Aem =582 nm) was measured using ClarioStar™ microplate reader. […] Those supposedly selected cells may be used to test for artemisinin sensitivity before and after encapsulation. This first objective, in addition to checking the sensitivity to artesunate (ARTE), is to test the sensitivity to the complex form (ARTE/Starch Glycolate) as well. This provides information on whether the encapsulation process affects the efficiency of ARTE in vitro. The effects of both drugs on the proliferation of 10 AML cell lines and 1 CML cell line was tested. Both the drug or the drug/Starch Glycolate complex were used at 2 μM, a dose that has been reported to be very efficient at least in two AML cell lines (MV4-11 and MOLM13). The ARTE/Starch Glycolate in water was prepared fresh every time for each experiment. Frozen (−20° C.) ARTE/Starch Glycolate complex was also tested in parallel to fresh ARTE/Starch Glycolate in each experiment, to evaluate stability after freezing. • a.
# MV4-11 cells = assay: Cell growth, resazurin fluorescence assay; assay type: cell-based; conditions: 3 days
# Procedure: as §1
# K562 cells = assay: Cell growth, resazurin fluorescence assay; assay type: cell-based; conditions: 3 days
# Procedure: as §1
# KG1a cells = assay: Cell growth, resazurin fluorescence assay; assay type: cell-based; conditions: 3 days
# Procedure: as §1, with “[…] ARTE.SG and ARTE have” for “Both”, “Same IC50 in 4 Representative Leukemic Cell Lines To further confirm” for “drug or”, “equivalent efficiency between ARTE and ARTE.SG, the IC50 of both drugs on 4 leukemic” for “drug/Starch Glycolate complex were used at 2 μM, a dose that has been reported to be very efficient at least in two AML”, “that cover the 3 sensitivity groups described above” for “(MV4-11 and MOLM13). The ARTE/Starch Glycolate in water”, “calculated.” for “prepared fresh every time for each experiment. Frozen (−20° C.) ARTE/Starch Glycolate complex was also tested in parallel to fresh ARTE/Starch Glycolate in each experiment, to evaluate stability after freezing. • a.”
# NB4 cells = assay: Cell growth, resazurin fluorescence assay; assay type: cell-based; conditions: 2 μM, 3 days
# Procedure: (§2) Cell growth was followed via the resazurin (alamar blue) fluorescence assay. At day −1, cells were seeded in 100 μL media at a density of 4×10^3 cells/well in 96-well plates and incubated overnight at 37° C. […] Cultures were performed during 3 days after the addition of the drugs. At day 3, Resazurin (0.1 mg/mL, Sigma-Aldrich) was added at 20 μL/well, and plates were incubated for 4 h at 37° C., then fluorescence (Aex=529.5 nm, Aem =582 nm) was measured using ClarioStar™ microplate reader.
# (§3) Those supposedly selected cells may be used to test for artemisinin sensitivity before and after encapsulation. This first objective, in addition to checking the sensitivity to artesunate (ARTE), is to test the sensitivity to the complex form (ARTE/Starch Glycolate) as well. This provides information on whether the encapsulation process affects the efficiency of ARTE in vitro. The effects of both drugs on the proliferation of 10 AML cell lines and 1 CML cell line was tested. Both the drug or the drug/Starch Glycolate complex were used at 2 μM, a dose that has been reported to be very efficient at least in two AML cell lines (MV4-11 and MOLM13). The ARTE/Starch Glycolate in water was prepared fresh every time for each experiment. Frozen (−20° C.) ARTE/Starch Glycolate complex was also tested in parallel to fresh ARTE/Starch Glycolate in each experiment, to evaluate stability after freezing. • a.
# THP1 cells = assay: Cell growth, resazurin fluorescence assay; assay type: cell-based; conditions: 2 μM, 3 days
# Procedure: as §2, §3
# ML2 cells = assay: Cell growth, resazurin fluorescence assay; assay type: cell-based; conditions: 2 μM, 3 days
# Procedure: as §2, §3
# HL60 cells = assay: Cell growth, resazurin fluorescence assay; assay type: cell-based; conditions: 2 μM, 3 days
# Procedure: as §2, §3
# U937 cells = assay: Cell growth, resazurin fluorescence assay; assay type: cell-based; conditions: 2 μM, 3 days
# Procedure: as §2, §3
# MOLM13 cells = assay: Cell growth, resazurin fluorescence assay; assay type: cell-based; conditions: 2 μM, 3 days
# Procedure: as §2, §3
# HEL cells = assay: Cell growth, resazurin fluorescence assay; assay type: cell-based; conditions: 2 μM, 3 days
# Procedure: as §2, §3
# [4] = set-up: species or system CD-1 mice; conditions: CD-1, mouse, in vivo, po, 200 mg/kg
# Procedure: The in vivo study was carried out on CD-1 mice (body weight approximately 20 g), and the experimental protocol is conducted according to the Animal Care Committee approval. After review of the medical records provided by the animal supplier facility, mice are observed during 1 week for their acclimation before the experiment.
# H. pylori strains = assay: Minimum inhibitory concentration, agar dilution method; assay type: cell-based; conditions: Helicobacter pylori; about 59 strains, 48 h at 37° C., microaerobic
# [5] = set-up: species or system CD-1 mice; conditions: CD-1, mouse, in vivo
# Procedure: The in vivo study was carried out on CD-1 mice (body weight approximately 20 g), and the experimental protocol is conducted according to the Animal Care Committee approval.
# After review of the medical records provided by the animal supplier facility, mice are observed during 1 week for their acclimation before the experiment.
# After administering the treatments as indicated above, blood samples are collected at 5, 15, 30, 45, 120 and 480 minutes after administration and mice are sacrificed. The plasma is separated by centrifugation and conserved −80° C. before processing.
# An amount of 400 μL of plasma is dispersed in 1 mL of acetonitrile to precipitate proteins and agitated during 5 minutes with a vortex before placing the suspensions of the sample in an ultrasonic bath for 1 minute. The precipitated proteins are separated by centrifugation (15000 g, 5 minutes at 16° C.) and the supernatant is collected in a microplate for analysis.
structure (smiles),measurement,setting,value
C[C@H]1[C@H](OC(=O)CCC(=O)[O-])O[C@@H]2O[C@@]3(C)CC[C@H]4[C@H](C)CC[C@@H]1[C@@]24OO3.[Na+] [artesunate sodium salt form],bacterial concentration after incubation (reduction from 10^6),E. coli,10^4 CFU/mL
same,solubility in water,[1],only slightly soluble
same,appearance of the solution in SGF after 2 hours,[2],"cloudy, but no evident precipitation is observed"
same,appearance of the solution in SGF after 12 h,[2],a precipitation is formed at the bottom
CC1(C)S[C@@H]2[C@H](NC(=O)[C@H](N)c3ccc(O)cc3)C(=O)N2[C@H]1C(=O)O [Amoxicillin],antibacterial effect by quantitative culture or quantitative PCR (Experiment 1),"H. pylori PremSS1 strain; 7 days of treatment, absence of proton pump inhibitor",no antibacterial effect
same,antibacterial effect by quantitative culture or quantitative PCR (Experiment 2),"H. pylori PremSS1 strain; 14 days, with Pantoprazole 150 mg/kg",certain antibacterial effect
"C[C@@H]1CCC2[C@@H](C)[C@H](OC(=O)CCC(=O)O)OC3O[C@@]4(C)CCC1[C@]32OO4 (stereo partly shown) [untreated artesunate, Artesunate]",water solubility,[3],0.68 mg/mL
same,sensitivity group,KG1 cells; 2 μM,moderately sensitive
same,IC50,"KG1 cells; Homo sapiens, KG-1, 72 h, preliminary",~1000 nM
same,sensitivity group,MV4-11 cells; 2 μM,highly sensitive
same,IC50,"MV4-11 cells; Homo sapiens, MV4-11, 72 h, preliminary",250 to 500 nM
same,sensitivity group,K562 cells; 2 μM,low sensitivity
same,IC50,"K562 cells; Homo sapiens, K562, 72 h, preliminary",~8 µM
same,sensitivity group,KG1a cells; 2 μM,low sensitivity
same,IC50,"KG1a cells; Homo sapiens, KG-1a, 72 h, preliminary",~2000 nM
same,sensitivity group,NB4 cells,highly sensitive
same,sensitivity group,THP1 cells,highly sensitive
same,sensitivity group,ML2 cells,moderately sensitive
same,sensitivity group,HL60 cells,moderately sensitive
same,sensitivity group,U937 cells,moderately sensitive
same,sensitivity group,MOLM13 cells,highly sensitive
same,sensitivity group,HEL cells,moderately sensitive
same,"time to maximum concentration of DHA (prostate section, printed 'in the brain')",[4],30 min
same,bacterial concentration after incubation (reduction from 10^6),E. coli,no significant change
same,MIC50,H. pylori strains,20 µg/mL
same,MIC90,H. pylori strains,80 µg/mL
same,AUC Area under curve,"[5]; iv, 3.5 mg/kg",507 ± 102 ng·min/mL
same,Cl Clearance,"[5]; iv, 3.5 mg/kg",6930 ± 398 mL/min/kg
same,Tmax Maximum peak time,"[5]; iv, 3.5 mg/kg",15 min
same,T½ Apparent plasma half-life,"[5]; iv, 3.5 mg/kg",12 ± 2 min
same,Cl Clearance,"[5]; po, 200 mg/kg",24295 ± 8527 mL/min/kg
same,Oral Bioavailability F,"[5]; po, 200 mg/kg",8 ± 4%
same,appearance of the solution in SGF after 2 hours,[2],"milky appearance, with an important precipitation at the bottom of vial"
same,appearance of the solution in SGF after 12 h,[2],no change
